Experimental data published in patent publication US7576177B2, “Hsp peptides and analogs for modulation of immune responses via antigen presenting cells” (Andromeda Biotech Ltd., priority 2002, dated 2009).

Assays:
mouse monocyte line J774 = assay: Secretion of oxygen free radicals (oxidative burst) from mouse monocyte line; format: cell-based; settings: J774, FIG. 5
[1] = test system: peripheral blood mononuclear cells cultured with GM-CSF and IL4 (dendritic cells); assay: Peripheral blood derived dendritic cells: secreted cytokines (IP-10, IL-8) and cell surface antigens (CD83, CD86); format: cell-based, human
Procedure: The effect of the compositions of the present invention on peripheral blood derived dendritic cells, was tested according to a protocol described by Re, F. and Strominger, J. L. 2001. Toll-like receptor 2 (Tlr2) and Tlr4 differentially activate human dendritic cells. (J Biol Chem 276: 37692-9). According to this method immature dendritic cells derived from human peripheral blood are used. The outcome after incubating the cells with tested molecules is different if the stimulation is through the Toll 4 receptor or the Toll 2 receptor. According to the authors, Toll 2 signaling by stimulation with zymosan is associated with a Th2 kind of response (exemplified by IL-8) and Toll 4 signaling, such as obtained by LPS stimulation (exemplified by IP-10), with a Th1 type of response. The compositions of the present invention were tested using a similar assay system in order to check which stimulation type they induce. […] The increase in CD86 expression after exposure of APCs to Hsps or Hsp derived peptides is important since CD86 (B7.2) is an essential component of the immunological synapse formed between T cells and APC. This synapse consists of CD80 and CD86 on the side of the APC and CD28 and CD40 on the side of the T cell. T cell recognition of peptide on APC without the concurrent expression of CD86 gives rise to anergy instead of a T cell response. Therefore in order to produce a response all components must be present.
The assay was based on the protocol described by Re, F. and Strominger, J. L. 2001. Toll-like receptor 2 (Tlr2) and Tlr4 differentially activate human dendritic cells. (J. Biol Chem 276: 37692-9).
Peripheral blood mononuclear cells were prepared from leucocytes from blood lots obtained from the blood bank. The cells were plated at 10^8 cells/10 ml/Petri dish in RPMI medium including 10% FCS and allowed to adhere at 37° C. for 2 hours. At the end of this time, the non-adherent cells were washed off the plates with PBS and the adherent cells resuspended in fresh medium as before. The cells were then cultured for at least 8 days with the addition of GM-CSF and IL4 with the medium changed every 4 days. After this time, the cells were harvested and cultured overnight with LPS, zymosan or p277(Val^6-Va^11). The next day, the supernatant was collected for assay of the secreted cytokines (IP-10 and IL-8) and the cells were harvested for investigation of the cell surface antigens (CD83, CD86). CD83 is an antigen characteristic of dendritic cells. […] The second marker, CD86 (B7.2) is characteristic of mature dendritic cells. The marker CD86 is an essential component of the immunological synapse formed between T cells and APC. This synapse consists of CD80 and CD86 on the side of the APC and CD28 and CD40 on the side of the T cell. This is of course in addition to the specific recognition between the T cell receptor and peptide held in the MHC of the APC. T cell recognition of peptide on APC without the concurrent expression of CD86 gives rise to anergy instead of a T cell response.

[2] = test system: BALB/c DO.11.10 bone marrow cells cultured for dendritic cells, cocultured with DO.11.10 T cells; assay: Education of mouse dendritic cells and stimulation of T-cells, cytokine content of supernatant; format: cell-based
Procedure: Whelan et al. (J. Immunol 164, 6453-6460, 2000) addressed the problem in mice by an experiment in which mouse bone marrow cells were grown for 6 days in culture with GM-CSF to give immature dendritic cells. These dendritic cells were then incubated overnight with LPS (known to drive cells to DC1) or with a nematode antigen. The reason for the choice of nematode antigen was that injection of this antigen in vivo gives rise to a Th2 response in animals. After this so-called “education” of the dendritic cells, they were washed and subsequently incubated with naive T cells in the presence of antigenic stimulus. The experiment was possible because of the use of transgenic mice in which all the T cells respond to the same peptide (OVA323-339) which absolves the system from any question of bias of the T cell response at the level of the T cells. Any bias should be a consequence of the “education” of the dendritic cells. After three days of incubation the cytokine responses produced by the T cells, were measured by ELISA. […] In contrast, nematode antigen incubation gave rise to more IL-4 (Th2) than did controls while the LPS incubation inhibited the IL4 response. Therefore, the nematode antigen was said to drive cells to DC2. A similar method was used for testing the compounds of the present invention: • 1. Bone marrow cells were extracted from the leg bones of DO.11.10 mice transgenic for the TcR. All cells from these mice respond to the OVA peptide ([…]). • 2. Bone marrow cells were plated at 10^6 cells/ml in 100 mm diameter tissue culture petri dishes in Iscove's medium supplemented with 10% FCS, […], 1 mM sodium pyruvate, penicillin/streptomycin (according to manufacturer's recommendations), non-essential amino acids, 50 μM β-mercaptoethanol and 10 ng/ml mGM-CSF. • 3. After 4 days, the medium was carefully removed and replaced with fresh medium • 4. After 6 days, the non-adherent cells were harvested and used as immature dendritic cells • 5. The immature dendritic cells are plated at 1×10^6 cells/ml, 1 ml/well in 24 well plates in the above medium with various reagents added at various concentrations and incubated overnight. This is the stage in which the dendritic cells are “educated” • 6. The next day the cells were harvested and washed 3 times then resuspended at 5×10^4 cells/ml in 1 ml of the above medium but without the addition of GM-CSF to be cocultured with T cells • 7. […] 5×10^5 T cells were cultured with the dendritic cells from step 6 in the presence of various concentrations of the OVA peptide (0, 0.3 nM, 3 nM and 30 nM). • 9. After 3 days PMA (50 ng/ml) and ionomycin (500 ng/ml) were added to further stimulate the cells. • 10. The next day the cell supernatants were collected and assayed for cytokine content (Interferon γ, IL4, IL-10 and IL-12).
The compound was tested for stimulation of DO.11.10 bone marrow cells according to the assay described above (Production and education of mouse dendritic cells and stimulation of T-cells).
BALB/c DO.11.10 bone marrow cells were cultured for dendritic cells and then stimulated with LPS 1 μg/ml, LPS 10 μg/ml, hsp60 3 μg/ml, hsp60 10 μg/ml, p277 5 μg/ml and p277 50 μg/ml. The cells were then transferred to wells with T cells from fresh BALB/c DO.11.10 mice and stimulated with OVA peptide at different concentrations (0, 0.3 nM, 3 nM, 30 nM). Supernatant was collected after 48 hours for assay. 30 μl was taken for IFN, 40 μl for IL4 and IL-10 and 50 μl for IL-12 assays. The results are presented in the following tables, as amount of cytokine (pg/ml), and in FIG. 1.

[3] = compared with non-exposed dendritic cells
[4] = dendritic cells educated with 1 μg/ml, 0.3 nM Ova peptide
[5] = dendritic cells educated with 10 μg/ml, 0.3 nM Ova peptide

Substance: VALLRVIPA (Homo sapien) [p277(442-450, Val^6Val^11)]
- inhibition of the oxidative burst (secretion of oxygen free radicals) (mouse monocyte line J774): effective

Substance: lipopolysaccharide [LPS, reference compound]
- maturation: percentage of cells stained with anti-CD86 ([1]; overnight stimulation, FIG. 3): increase of maturation
- IL-8 ([1]; stimulus 10 ng/ml, overnight): 3131 pg/mL
- IP-10 ([1]; stimulus 10 ng/ml, overnight): 2520 pg/mL
- IFN gamma produced by T cells after treatment of dendritic cells (in words) [2, 3]: increased IFN gamma
- IL-4 produced by T cells after exposure of dendritic cells (in words) [2, 3]: decreased IL4
- IL-4 secretion of T cells [2, 4]: 11.07 pg/mL
- IL-10 secretion of T cells [2, 4]: 15.26 pg/mL
- IL-12 secretion of T cells [2, 4]: 90.00 pg/mL
- IFN secretion of T cells ([2]; dendritic cells educated with 1 μg/ml, T cells stimulated with 0.3 nM Ova peptide): 328.33 pg/mL
- IFN secretion of T cells [2, 5]: 478.89 pg/mL
- IL-4 secretion of T cells [2, 5]: 1.07 pg/mL
- IL-10 secretion of T cells [2, 5]: 75.48 pg/mL
- IL-12 secretion of T cells [2, 5]: 131.25 pg/mL
